For one data set, the target named is T1, human TRPV1 (Homo sapiens, UniProt Q8NER1).
T1 construct: DYK (FLAG) tag from vector pcDNA3.1+/C-(K)DYK (C); host or cells: FreeStyle 293-F cells (HEK 293), transient transfection
Briefly: In vitro Ca2+ flux assay in human TRPV1 transfected HEK 293 cells. The note with it: read-out: TRPV1 EC50. It is filed as cell-based.

Another data set has as its target T2, human TRPV3 (Homo sapiens, UniProt Q8NET8).
T2 construct: expressed in transfected cells; host or cells: overexpressing cells
T2 sequence (Q8NET8 1-790): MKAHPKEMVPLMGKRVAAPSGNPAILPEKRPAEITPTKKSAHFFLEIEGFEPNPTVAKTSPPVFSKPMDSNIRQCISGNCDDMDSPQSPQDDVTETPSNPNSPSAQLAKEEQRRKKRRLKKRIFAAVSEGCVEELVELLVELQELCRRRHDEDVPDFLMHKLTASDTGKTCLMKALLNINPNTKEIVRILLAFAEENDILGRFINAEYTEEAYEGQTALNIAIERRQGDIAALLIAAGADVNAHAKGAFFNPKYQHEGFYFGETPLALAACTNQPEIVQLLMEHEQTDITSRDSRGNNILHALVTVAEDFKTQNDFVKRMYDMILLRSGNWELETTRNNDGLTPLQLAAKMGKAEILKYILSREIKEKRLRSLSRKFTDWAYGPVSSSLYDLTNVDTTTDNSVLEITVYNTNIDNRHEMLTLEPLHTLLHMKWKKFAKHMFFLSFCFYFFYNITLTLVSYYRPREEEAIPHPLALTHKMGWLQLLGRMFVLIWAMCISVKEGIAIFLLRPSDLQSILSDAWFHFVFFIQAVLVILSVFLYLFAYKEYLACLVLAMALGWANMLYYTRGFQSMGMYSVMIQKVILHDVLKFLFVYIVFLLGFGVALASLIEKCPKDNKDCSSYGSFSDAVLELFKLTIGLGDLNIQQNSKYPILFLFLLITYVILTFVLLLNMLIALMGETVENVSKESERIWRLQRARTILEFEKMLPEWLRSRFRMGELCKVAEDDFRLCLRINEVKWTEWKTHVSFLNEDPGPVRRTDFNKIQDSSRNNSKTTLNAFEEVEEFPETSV
Briefly: In vitro Ca2+ flux counter-screen in human TRPV3 overexpressing cells. The settings on record: counter-screen; read-out: TRPV3 EC50. It is filed as cell-based.

A further data set has as its target T3, human TRPA1 (Homo sapiens, UniProt O75762).
T3 construct: expressed in transfected cells; host or cells: overexpressing cells
Briefly: In vitro Ca2+ flux counter-screen in human TRPA1 overexpressing cells. It is filed as cell-based. The note with it: counter-screen; read-out: TRPA1 EC50. On the technique in general: A change in cytosolic calcium serves as a functional read-out for many receptors and channels.

Data set [1] can be described thus: Mouse liver microsome stability. The settings on record: liver microsomes, C57BL6 mouse liver microsome. In kind it is in vitro ADME. In general terms: Liver microsomes are a subcellular fraction often used to study metabolism.
The nature of a further data set: In vivo mouse PK. The note with it: IV 0.4 mg/kg, C57BL6 mouse.
Another data set relates to MDA-MB-231. Briefly: Human cancer cell growth inhibition assay (ATP assay), MDA-MB-231. The settings on record: Homo sapiens, MDA-MB-231, 96 h; 4 days; Means±SEM from three independent experiments; read-out: MDA-MB-231, IC50. It is filed as cell-based.
The subject of the next data set is NCI-H460. The experiment in a line: Human cancer cell growth inhibition assay (ATP assay), NCI-H460. It is filed as cell-based. The note with it: Homo sapiens, NCI-H460, 96 h; 4 days; Means±SEM from three independent experiments; read-out: NCl-H460, IC50.
A further data set concerns OVCAR-8. Briefly: Human cancer cell growth inhibition assay (ATP assay), OVCAR-8. It is filed as cell-based. The settings on record: Homo sapiens, OVCAR-8, 96 h; 4 days; Means±SEM from three independent experiments; read-out: OVCAR-8, IC50.
For a further data set, the system named is MDA-MB-231 cell invasion. The experiment in a line: Cancer cell invasion assay, MDA-MB-231. The settings on record: 24 h. It is filed as cell-based, human. An outline of the steps:
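Transwell inserts were coated with membrane matrix gel (0.5-0.6 mg/mL) and loaded with 1×10^5 human cancer cells in RPMI 1640, with 10% FBS medium below as attractant. Compound or DMSO went into both compartments for 24 h at 37 °C. Invaded cells were fixed, crystal-violet stained, counted in 5 random fields and expressed as % of DMSO control.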

The conditions of data set [2]: both, mouse, in vivo, 1 min.
On the set-up of data set [3]: decrease in the second phase of the formalin test: dose or concentration left out as unconfirmed. The note with it: intraplantar.
For another data set, the target named is T4, TRPV1 (Mus musculus, UniProt Q704Y3).
T4 construct: DRG was isolated from male and female mice expressing GCaMP6f in neurons; endogenous in cells; host or cells: dissociated primary DRG neurons from GCaMP6f-expressing mice
T4 sequence (Q704Y3 whole entry): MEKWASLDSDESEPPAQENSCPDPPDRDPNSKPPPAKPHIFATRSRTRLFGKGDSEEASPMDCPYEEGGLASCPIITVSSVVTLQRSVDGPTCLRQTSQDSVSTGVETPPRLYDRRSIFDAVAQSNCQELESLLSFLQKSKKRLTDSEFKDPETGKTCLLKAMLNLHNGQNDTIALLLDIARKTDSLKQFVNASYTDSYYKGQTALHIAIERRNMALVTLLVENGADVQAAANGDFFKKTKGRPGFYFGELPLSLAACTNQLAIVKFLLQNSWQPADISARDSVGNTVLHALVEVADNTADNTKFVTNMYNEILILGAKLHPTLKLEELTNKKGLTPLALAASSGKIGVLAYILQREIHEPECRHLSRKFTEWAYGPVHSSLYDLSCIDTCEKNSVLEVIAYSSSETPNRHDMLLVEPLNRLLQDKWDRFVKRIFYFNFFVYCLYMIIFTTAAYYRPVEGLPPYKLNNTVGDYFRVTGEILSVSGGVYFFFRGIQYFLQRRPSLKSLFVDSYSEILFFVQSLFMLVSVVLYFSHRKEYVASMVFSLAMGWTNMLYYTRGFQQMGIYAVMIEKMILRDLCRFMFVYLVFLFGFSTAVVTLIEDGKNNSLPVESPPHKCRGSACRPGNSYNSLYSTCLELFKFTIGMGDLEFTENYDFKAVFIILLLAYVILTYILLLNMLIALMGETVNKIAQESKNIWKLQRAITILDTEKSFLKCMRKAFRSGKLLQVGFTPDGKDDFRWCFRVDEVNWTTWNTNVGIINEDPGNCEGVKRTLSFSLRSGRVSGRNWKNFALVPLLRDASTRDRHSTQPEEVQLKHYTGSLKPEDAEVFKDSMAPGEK
The experiment in a line: Ca2+ imaging of primary mouse dorsal root ganglion (DRG) neurons, TRPV1 desensitization. In kind it is cell-based. The note with it: then capsaicin 0.5 μM.

Data set [4] in a line: Operant Pain Tolerance Assay. The note with it: intraplantar. In kind it is in vivo. As to the method: Model 3—The ability of YB-16 to increase pain tolerance was tested using a newly published Operant Pain Tolerance Assay (eNeuro 2020, 7, ENEURO.0210-19.2020). In the assay, mice were trained to seek a sucrose reward that was on a hot 42° C. plate (versus no reward on a neutral 30° C. plate). It was noticed that intraplantar YB-16 treated mice with paw inflammatory injury [induced by Complete Freund's adjuvant (CFA) 24 hrs prior to treatment] trended to spend 145% more time on the hot side of the assay but not necessarily additional time near the sucrose bottle compared to vehicle treated mice (FIG. 10B).

For data set [5] the following is noted: SubQ 6 mg/kg.
Setting [6] is: Means±SEM from three independent experiments.
[7] abbreviates: first treatment capsaicin 0.5 μM, YB-11 0.5 μM or YB-16 1.0 μM, paired t-test.

Molecules are shown by their SMILES. “Also recorded” adds a separate entry of the source. Like-named read-outs stand apart in the source and are kept apart here.

T1 sequence (Q8NER1 whole entry): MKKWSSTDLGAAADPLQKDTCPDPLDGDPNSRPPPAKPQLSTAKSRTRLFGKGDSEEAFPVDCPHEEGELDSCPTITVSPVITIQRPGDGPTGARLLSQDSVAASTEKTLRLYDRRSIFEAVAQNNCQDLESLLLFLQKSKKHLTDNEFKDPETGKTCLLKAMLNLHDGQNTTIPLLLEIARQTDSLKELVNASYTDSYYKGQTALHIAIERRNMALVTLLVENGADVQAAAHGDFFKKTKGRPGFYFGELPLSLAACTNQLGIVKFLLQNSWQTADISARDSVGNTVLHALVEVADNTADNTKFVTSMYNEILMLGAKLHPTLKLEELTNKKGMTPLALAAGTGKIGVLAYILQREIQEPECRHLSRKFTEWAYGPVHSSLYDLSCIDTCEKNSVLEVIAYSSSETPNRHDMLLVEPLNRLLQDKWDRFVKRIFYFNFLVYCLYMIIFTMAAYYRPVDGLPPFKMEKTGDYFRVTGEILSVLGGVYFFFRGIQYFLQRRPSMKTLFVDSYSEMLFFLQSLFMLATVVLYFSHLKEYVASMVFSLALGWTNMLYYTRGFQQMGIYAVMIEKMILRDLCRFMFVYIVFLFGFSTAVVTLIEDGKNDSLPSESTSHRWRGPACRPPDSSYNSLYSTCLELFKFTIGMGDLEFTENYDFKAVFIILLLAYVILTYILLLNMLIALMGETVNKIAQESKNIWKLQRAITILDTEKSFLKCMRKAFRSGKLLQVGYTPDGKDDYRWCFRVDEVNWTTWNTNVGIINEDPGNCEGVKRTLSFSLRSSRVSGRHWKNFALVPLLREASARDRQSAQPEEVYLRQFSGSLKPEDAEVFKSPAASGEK
T3 sequence (O75762 whole entry): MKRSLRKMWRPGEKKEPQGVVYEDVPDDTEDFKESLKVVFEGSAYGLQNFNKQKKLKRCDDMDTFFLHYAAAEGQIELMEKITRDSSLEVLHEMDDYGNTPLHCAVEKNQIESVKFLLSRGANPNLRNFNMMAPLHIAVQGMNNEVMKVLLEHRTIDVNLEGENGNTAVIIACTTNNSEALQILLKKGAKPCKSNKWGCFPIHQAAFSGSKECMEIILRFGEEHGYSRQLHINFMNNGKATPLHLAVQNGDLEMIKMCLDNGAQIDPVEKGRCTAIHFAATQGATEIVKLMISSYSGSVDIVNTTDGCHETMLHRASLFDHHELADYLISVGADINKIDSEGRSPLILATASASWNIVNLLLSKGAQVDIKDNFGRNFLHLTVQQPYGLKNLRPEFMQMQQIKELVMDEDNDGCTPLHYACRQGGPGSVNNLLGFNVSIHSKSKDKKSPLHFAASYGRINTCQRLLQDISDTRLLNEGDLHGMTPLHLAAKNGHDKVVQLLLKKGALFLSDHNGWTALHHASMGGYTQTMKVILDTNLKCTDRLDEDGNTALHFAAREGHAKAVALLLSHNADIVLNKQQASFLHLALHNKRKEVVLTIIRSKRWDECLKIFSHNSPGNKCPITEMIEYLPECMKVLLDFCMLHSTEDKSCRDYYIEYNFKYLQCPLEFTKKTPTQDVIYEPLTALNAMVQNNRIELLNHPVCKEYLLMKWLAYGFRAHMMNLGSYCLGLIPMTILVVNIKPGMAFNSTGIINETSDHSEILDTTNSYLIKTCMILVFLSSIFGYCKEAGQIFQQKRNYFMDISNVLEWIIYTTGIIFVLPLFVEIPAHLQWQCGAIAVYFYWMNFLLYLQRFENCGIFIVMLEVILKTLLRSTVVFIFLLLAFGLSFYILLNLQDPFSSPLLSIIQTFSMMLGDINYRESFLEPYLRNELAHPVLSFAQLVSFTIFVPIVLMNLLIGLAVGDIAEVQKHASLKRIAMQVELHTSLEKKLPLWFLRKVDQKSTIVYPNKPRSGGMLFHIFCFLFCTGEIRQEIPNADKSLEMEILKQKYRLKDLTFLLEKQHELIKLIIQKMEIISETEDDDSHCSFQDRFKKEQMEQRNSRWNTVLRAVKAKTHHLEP

Take `COc1cc(CNC(=O)CCCC/C=C/C(C)C)ccc1N` [YB-2]: the EC50 – broadly, the concentration giving half of the maximal effect – at human TRPV1 (setting [6]) was less than 0.1 µM; at human TRPV1 (Table 3 comparison, YB-2 tested as a HCl salt) it was 0.082 µM; at human TRPV3, more than 10 µM; at human TRPA1 it was more than 10 µM. Further, the intrinsic clearance (CLint scaled) (in general, the capacity of the preparation to metabolise the compound, expressed as a volume cleared per time) at 2 μM in data set [1] is 1780 mL/min/kg. For the same molecule, the “λz” value in “In vivo mouse PK” was 4.1 h⁻¹. Also, the IC50 (commonly the concentration at which inhibition is half-maximal) with MDA-MB-231 came out at 342 ± 30 µM; in the data set on NCI-H460, 350 ± 25 µM; in the data set on OVCAR-8 it was 200 ± 22 µM. Besides, the “inhibition of MDA-MB-231 cell invasion” value with MDA-MB-231 cell invasion is reported as “dose-dependently inhibited”. Also, the MPP in [2] is 0.233 mg/mL. Besides, the “animal death and sedation in formalin test” value in data set [3] is given as “No mice treated with YB-16, YB-11 or YB-2 died or experienced sedative reaction”. Moreover, the “effect in the second phase of the formalin test” value in [3] (2 hr prior to formalin) is reported as “significant analgesic effect in the second phase for male mice only”. Further, in data set [3] (2 hr prior to formalin), the “effect on formalin spontaneous pain-like behavior” value is reported as “did not reduce formalin behavior at any dose tested”.

As to `COCCOCCOCCC(=O)Oc1ccc(CC(=O)N/C=C/c2ccc(C(F)(F)F)cc2)cc1OC` [YB-16], the EC50 at human TRPV1 (setting [6]) is 0.93 µM; at human TRPV3, more than 10 µM; at human TRPA1, more than 10 µM. For the same molecule, the “TRPV1-sensitive neurons showing desensitization” value at TRPV1 (first treatment 1.0 μM) was found to be 79%. Further, at TRPV1 (setting [7]), the “area under the curve of the Ca2+ signal of the second (capsaicin) application” value is “statistically significant reduction; also recorded: significantly reduced”. At TRPV1 (setting [7]), the “max Ca2+ signal of the second (capsaicin) application” value was “statistically significant reduction; also recorded: significantly reduced”. In addition, the “sedation in operant pain tolerance assay” value in data set [4] is on record as “inflammatory injury with no sedation”. For the same molecule, the “sensitivity to hot plate after inflammatory injury” value in data set [4] (paw inflammatory injury (CFA)) was “trended to reduce sensitivity to hot plate after inflammatory injury compared to vehicle; also recorded: trended to increase time in a 42 °C chamber; also recorded: Trend for reduced sensitivity to hot”. Also, the figures for the IC50 in the data set with MDA-MB-231, in the data set with NCI-H460 and in the data set with OVCAR-8 were more than 100 µM, more than 100 µM and 16 µM, respectively. Further, in data set [2], the MPP was found to be 0.302 mg/mL. The “animal death and sedation in formalin test” value in data set [3] is reported as “No mice treated with YB-16, YB-11 or YB-2 died or experienced sedative reaction”. Besides, the “decrease in the second phase of the formalin test” value in data set [3] (2 hr prior to formalin) came out at 54%. Moreover, in data set [3] (2 hr prior to formalin), the “reduction of formalin first phase behavior” value was 60%. For the same molecule, the “MPE (maximum possible effect) increase compared to vehicle” value in data set [5] was 270%.

The record behind these values is patent US20240116856A1 (Young BioPharma, LLC, priority 2020, published 2024).
